Where two headings read alike, the source gives them in different places.
Legend:
[1] = Liver microsome stability, mouse; format: in vitro ADME, CD-1 mouse
From the text: (§1) Metabolic stability assays are designed to measure the stability of a test compound in a variety of assay matrices from human and animal species. From a metabolism perspective, a drug would be relatively stable, have a small first-pass effect, and maintain an effective concentration in blood for a reasonable period of time. A microsomal preparation from the liver contains all CYP isozymes and other membrane-bound drug metabolizing enzymes which are responsible for the metabolism for the majority of drugs in humans. Metabolic stability in liver microsomes can determine half-life (T1/2) and intrinsic clearance (Clint). The determination of Clint may be useful to determine whether metabolism is the major elimination pathway when it is compared to total body clearance in vivo. For high metabolic stability in liver microsomes: […] Human, Sprague Dawley rat, and CD-1 mouse liver microsome samples were purchased from BD Gentest. An in vitro metabolic stability assay suitable for use in predicting first pass metabolism of the compounds useful in the methods of the invention is described in this example. […] 6 mM NADPH in 0.1 M K-phosphate buffer is prepared by dissolving 25.1 mg of NADPH tetrasodium salt in 5 mL of K-phosphate buffer. […] The plate is pre-incubated at 37° C. for 10 minutes. 15 μL of NADPH stock solution (6 mM) is added to the wells designated for Time 60 and timed. At 30 min, 15 min, and 5 min, 15 μL of NADPH stock solution (6 mM) is added to the wells. At the end of incubation, 135 μL of ACN containing IS is added to all the wells (60 min, 30 min, 15 min, 5 min and 0 min). Then 15 μL of NADPH stock solution (6 mM) is added to the wells designated as Time 0.

[2] = Liver microsome stability, rat; format: in vitro ADME, Sprague Dawley rat
From the text: as §1

HCV genotype 1b = experiment: HCV 1b replicon luciferase assay; format: cell-based
In short: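 Luminescence (Steady-Glo) served as the replication read-out after 48 h compound exposure of 1b replicon-luciferase Huh7 cells seeded at 10k/well. Dosing used 5-fold serial dilutions, 10 concentrations, top 25 μM final, 0.1% DMSO, duplicates.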

[3] = Hepatitis C virus, Huh-7, 48 h, Table 1, Huh7 HCV 1b replicon, luciferase reporter, 48 hours, read-out: 1b EC50
[4] = read-out: 1b replicon EC50, Tables 4, 5 and the rat PK section
[5] = Hepatitis C virus, read-out: 1b replicon EC50, Tables 4, 5 and text of the rat PK section

Compound	mouse liver microsome (MLM), % parent remaining ([1]; after 15 min)	mouse liver microsome (MLM), % parent remaining ([1]; after 30 min)	mouse liver microsome (MLM), % parent remaining ([1]; after 60 min)	rat liver microsome (RLM), % parent remaining ([2]; after 15 min)	rat liver microsome (RLM), % parent remaining ([2]; after 30 min)	rat liver microsome (RLM), % parent remaining ([2]; after 60 min)	EC50 (HCV genotype 1b; [3])	EC50 (HCV genotype 1b; [4])	EC50 (HCV genotype 1b; [5])
Cn1nc(C(=O)NC2CCN(CC(F)F)CC2)c2ccc(N3CCCCCC3)nc21 [compound 1110]	15 % parent remaining	1 % parent remaining	0.4 % parent remaining	10 % parent remaining	0.5 % parent remaining	0.5 % parent remaining	1.8 µM	–	–
CCC(CC)Oc1ccc2c(C(=O)NC3CCNCC3)n[nH]c2n1 [compound 726]	99 % parent remaining	96 % parent remaining	86 % parent remaining	83 % parent remaining	69 % parent remaining	53 % parent remaining	1.2 µM	–	–
Cn1nc(C(=O)NC2CCN(CCN3CCCCC3)CC2)c2ccc(N3CCCCCC3)nc21 [compound 1047]	56 % parent remaining	29 % parent remaining	12 % parent remaining	44 % parent remaining	18 % parent remaining	10 % parent remaining	0.52 µM	–	–
O=C(NC1CCNCC1)c1nn(C(=O)C2CCCCC2)c2nc(N3CCCCCC3)ccc12.O=C(O)C(F)(F)F.O=C(O)C(F)(F)F.O=C(O)C(F)(F)F [compound 989]	–	–	–	–	–	–	2.6 µM	–	–
CC(C)N1CCC(NC(=O)c2nn(C)c3nc(N4CCCCCC4)ccc23)CC1 [EBP1604]	57 % parent remaining	40 % parent remaining	14 % parent remaining	58 % parent remaining	41 % parent remaining	14 % parent remaining	–	2.2 µM	–
Cn1nc(C(=O)NC2CCN(CCN3CCCC3)CC2)c2ccc(N3CCCCCC3)nc21 [EBP1597]	67 % parent remaining	32 % parent remaining	14 % parent remaining	57 % parent remaining	24 % parent remaining	15 % parent remaining	–	0.9 µM	0.5 to 2 µM
Clc1ccc(Cn2nc(COCCCN3CCCCC3)c3ccc(N4CCCCCC4)nc32)cc1 [compound 749]	–	–	–	–	–	–	2 µM	–	–
CCN1CCC(NC(=O)c2nn(C)c3nc(N4CCCCCC4)ccc23)CC1 [EBP1595]	67 % parent remaining	50 % parent remaining	17 % parent remaining	67 % parent remaining	46 % parent remaining	8 % parent remaining	–	1 µM	0.5 to 2 µM
CCN1CCC(NC(=O)c2nn(C)c3nc(N4CCCCCC4)ccc23)CC1 [compound 1595]	67 % parent remaining	50 % parent remaining	17 % parent remaining	67 % parent remaining	46 % parent remaining	8 % parent remaining	0.74 µM	–	–
Cn1nc(C(=O)NC2CCN(CCN3CCCC3)CC2)c2ccc(N3CCCCCC3)nc21 [compound 1597]	67 % parent remaining	32 % parent remaining	14 % parent remaining	57 % parent remaining	25 % parent remaining	14 % parent remaining	0.77 µM	–	–
CCC(CC)Oc1ccc2c(COCC3CCCNC3)nn(Cc3ccc(Cl)cc3)c2n1.O=C(O)C(F)(F)F (stereo not shown) [compound 755]	–	–	–	–	–	–	3.2 µM	–	–
Cn1nc(C(=O)NC2CCNCC2)c2ccc(N3CCCCCC3)nc21.O=C(O)C(F)(F)F.O=C(O)C(F)(F)F [compound 697]	85 % parent remaining	74 % parent remaining	44 % parent remaining	69 % parent remaining	42 % parent remaining	13 % parent remaining	0.67 µM	–	–
Cn1nc(C(=O)NC2CCN(CCN3CCCCC3)CC2)c2ccc(N3CCCCCC3)nc21 [EBP1047]	56 % parent remaining	29 % parent remaining	12 % parent remaining	44 % parent remaining	18 % parent remaining	10 % parent remaining	–	0.5 µM	0.5 to 2 µM
Cn1nc(CCCN2CCCCC2CO)c2ccc(N3CCCCCCC3)nc21 (stereo not shown) [compound 1456]	1.7 % parent remaining	0.9 % parent remaining	0.3 % parent remaining	3.9 % parent remaining	0.4 % parent remaining	0.2 % parent remaining	1.5 µM	–	–
Cn1nc(C(=O)NC2CCN(CC3CCCCC3)CC2)c2ccc(N3CCCCCCC3)nc21 [compound 1062]	–	–	–	–	–	–	0.356 µM	–	–
Cn1nc(CCCN2CCCC2)c2ccc(N3CCCCCCC3)nc21 [compound 1171]	22 % parent remaining	3 % parent remaining	1 % parent remaining	1.2 % parent remaining	0.5 % parent remaining	0.3 % parent remaining	1.6 µM	–	–

From US20120232062A1, “AZAINDAZOLES TO TREAT FLAVIVIRIDAE VIRUS INFECTION” (EIGER BIOPHARMACEUTICALS, INC., priority 2009, published 2012)
